Measured values as given in patent US11180474B2 (BRISTOL-MYERS SQUIBB COMPANY, priority 2016, dated 2021).

Key:
[1] = target: T1, human TLR9 (Homo sapiens, UniProt Q9NR96); assay: TLR9 inhibition reporter assay (HEK-Blue cells, SEAP reporter, ODN2006 stimulation); format: cell-based; settings: HEK-Blue cells overexpressing human TLR9, ODN2006 5 nM
T1 construct: host or cells: HEK-Blue cells
T1 sequence (Q9NR96 26-1032): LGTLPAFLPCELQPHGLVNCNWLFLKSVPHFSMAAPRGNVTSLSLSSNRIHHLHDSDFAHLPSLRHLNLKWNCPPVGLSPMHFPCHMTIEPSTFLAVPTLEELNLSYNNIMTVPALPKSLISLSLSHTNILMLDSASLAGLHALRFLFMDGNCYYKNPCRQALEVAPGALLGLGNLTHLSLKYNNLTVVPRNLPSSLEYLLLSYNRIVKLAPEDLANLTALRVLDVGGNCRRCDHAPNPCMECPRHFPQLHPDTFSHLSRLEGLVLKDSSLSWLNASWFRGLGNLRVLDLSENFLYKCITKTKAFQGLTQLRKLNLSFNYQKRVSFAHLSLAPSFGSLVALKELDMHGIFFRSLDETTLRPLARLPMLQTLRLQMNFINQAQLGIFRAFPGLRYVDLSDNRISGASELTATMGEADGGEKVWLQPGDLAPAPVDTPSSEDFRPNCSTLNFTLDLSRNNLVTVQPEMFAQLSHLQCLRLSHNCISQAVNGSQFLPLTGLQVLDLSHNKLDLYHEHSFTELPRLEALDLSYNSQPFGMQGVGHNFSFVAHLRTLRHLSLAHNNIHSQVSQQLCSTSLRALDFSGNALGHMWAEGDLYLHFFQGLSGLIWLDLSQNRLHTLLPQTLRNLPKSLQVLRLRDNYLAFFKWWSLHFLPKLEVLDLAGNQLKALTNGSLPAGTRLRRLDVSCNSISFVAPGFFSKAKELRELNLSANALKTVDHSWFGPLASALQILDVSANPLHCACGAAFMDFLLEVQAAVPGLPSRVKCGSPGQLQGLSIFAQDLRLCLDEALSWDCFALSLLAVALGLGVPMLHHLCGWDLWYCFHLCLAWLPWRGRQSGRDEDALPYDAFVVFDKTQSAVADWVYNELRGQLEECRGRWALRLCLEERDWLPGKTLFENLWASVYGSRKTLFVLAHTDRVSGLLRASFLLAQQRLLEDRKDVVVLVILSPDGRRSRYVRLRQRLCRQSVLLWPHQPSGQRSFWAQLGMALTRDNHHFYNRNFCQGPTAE
Outline: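 Human TLR7/8/9 HEK-Blue reporter lines; dose range 0.05 nM–50 μM; 30 min RT preincubation; stimulus gardiquimod 7.5 μM / R848 15.9 μM / ODN2006 5 nM respectively; 22 h, 37 °C; SEAP detected colorimetrically.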

[2] = target: T2, human TLR7 (Homo sapiens, UniProt Q9NYK1); assay: TLR7 inhibition reporter assay (HEK-Blue cells, SEAP reporter, gardiquimod stimulation); format: cell-based; settings: HEK-Blue cells overexpressing human TLR7, gardiquimod 7.5 μM
T2 construct: host or cells: HEK-Blue cells
T2 sequence (Q9NYK1 27-1049): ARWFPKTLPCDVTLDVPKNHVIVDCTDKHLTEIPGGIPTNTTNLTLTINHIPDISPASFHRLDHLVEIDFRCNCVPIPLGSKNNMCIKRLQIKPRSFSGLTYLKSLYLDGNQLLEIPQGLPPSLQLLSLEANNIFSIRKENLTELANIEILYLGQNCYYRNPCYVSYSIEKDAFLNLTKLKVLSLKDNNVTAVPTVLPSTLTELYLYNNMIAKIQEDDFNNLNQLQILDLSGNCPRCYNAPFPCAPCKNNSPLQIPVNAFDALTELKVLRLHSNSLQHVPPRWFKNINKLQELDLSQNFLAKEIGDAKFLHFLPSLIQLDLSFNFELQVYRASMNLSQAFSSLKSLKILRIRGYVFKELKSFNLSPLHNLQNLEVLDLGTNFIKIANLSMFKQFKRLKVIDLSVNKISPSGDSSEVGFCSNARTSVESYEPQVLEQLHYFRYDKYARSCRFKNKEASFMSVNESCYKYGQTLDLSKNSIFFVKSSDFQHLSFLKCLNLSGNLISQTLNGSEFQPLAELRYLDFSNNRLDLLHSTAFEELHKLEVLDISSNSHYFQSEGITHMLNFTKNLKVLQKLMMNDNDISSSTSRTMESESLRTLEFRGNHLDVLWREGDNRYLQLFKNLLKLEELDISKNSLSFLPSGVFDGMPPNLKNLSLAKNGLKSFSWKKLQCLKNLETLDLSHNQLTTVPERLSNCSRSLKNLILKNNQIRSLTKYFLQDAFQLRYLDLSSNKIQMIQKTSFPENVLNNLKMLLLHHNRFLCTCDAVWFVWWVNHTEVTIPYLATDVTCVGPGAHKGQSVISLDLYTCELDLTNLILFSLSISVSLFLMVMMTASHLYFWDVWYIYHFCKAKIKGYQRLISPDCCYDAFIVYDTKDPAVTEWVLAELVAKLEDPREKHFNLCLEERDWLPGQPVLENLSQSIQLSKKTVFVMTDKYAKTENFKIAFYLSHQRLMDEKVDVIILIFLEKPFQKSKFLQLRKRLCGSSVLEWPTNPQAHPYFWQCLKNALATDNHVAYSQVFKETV
Outline: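 Cells (15000/well for TLR7, 20,000 for TLR8) were treated with compounds over 0.05 nM-50 μM final. After 22 h at 37° C, 5% CO2, SEAP was measured with HEK-Blue Detection reagent; percent inhibition was taken as reduction of agonist-plus-DMSO signal relative to a known inhibitor.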

IC50 [1]: 2.31 µM
IC50 [2]: 0.036 µM
SMILES: COc1ccc(-c2[nH]c3ccc(C4CCN(C(=O)CN5CCC[C@H](C(=O)N6CCC(CCO)CC6)C5)CC4)cc3c2C(C)C)cc1OC [Example 291, (S)-1-(4-(2-(3,4-dimethoxyphenyl)-3-isopropyl-1H-indol-5-yl)piperidin-1-yl)-2-(3-(4-(2-hydroxyethyl)piperidine-1-carbonyl)piperidin-1-yl)ethan-1-one]
